By inhibition is commonly meant the relative decrease from the control value, in per cent.

Consider 1 compound from US6548540B2, “Method of treating cancer using dithiocarbamate derivatives” (Charlotte-Mecklenburg Hospital Authority, priority 1998, dated 2003).

One assay concerns Melanoma M1585. The experiment in a line: MTT proliferation assay, M1585 melanoma. It counts as cell-based. The note with it: Homo sapiens; for inhibition at 0.625 µM: disulfiram 0.625 μM; for inhibition at 0.625 µM / inhibition at 1.25 µM / inhibition at 2.5 µM / inhibition at 5 µM: read-out: Mean Percent Inhibition of Growth; for inhibition at 1.25 µM: disulfiram 1.25 μM; for inhibition at 2.5 µM: disulfiram 2.5 μM; for inhibition at 5 µM: disulfiram 5.0 μM. As for the experimental part: (§1) Human malignant cell lines were obtained from American Type Tissue Culture Collection (Rockville, Md.). Melanoma cells lines CRL 1585 and 1619 were cultured in RPMI 1640 (GIBCO-BRL, Life Technologies, Grand Island, N.Y.) with 10% FBS and passed with nonenzymatic Cell Dissociation Solution® (Sigma). The prostate adenocarcinoma cell line CRL 1435 (PC-3) was also cultured in RPMI 1640 with 10% FBS but passed with 0.05% trypsin and 0.53 mM EDTA. The squamous lung carcinoma NCI-H520 and the adenosquamous lung carcinoma NCI-H596 cell lines were grown in RPMI 1640 supplemented with 10% FBS, 10 mM HEPES and 1.0 mM sodium pyruvate and passed with trypsin/EDTA. The small cell lung carcinoma NCI-H82 was cultured as a suspension in RPMI 1640 with 10% FBS. All of the above were grown in a 37° C. humidified environment containing 5% CO2/air. The breast carcinoma cell line MDA-MB-453 was grown in a 37° C. humidified environment with free gas exchange with atmospheric air using Leibovitz's L-15 medium with 2 mM L-glutamine and 10% FBS and was passed with trypsin/EDTA.
The effect of disulfiram (0.15 to 5.0 μM), diethyldithiocarbamate (DDC, 1.0 μM) or PDTC (0.625 to 5.0 μM) on proliferation of malignant cell lines was studied in cultures stimulated with 10% FBS. Cell numbers were quantitated 24-72 hours later. In some experiments disulfiram or PDTC were added immediately after cells were plated. In other experiments, cells were plated and allowed to grow for 24-72 hours before fresh media with disulfiram or PDTC was added, and cell numbers were assayed 24-72 hours later. Synergy was studied between disulfiram and N,N′-bis(2-chloroethyl-N-nitrosourea (carmustine or BCNU, 1.0 to 1,000 μM) or cisplatin (0.1 to 100 μg/ml) added to medium. The effect of metals on disulfiram was studied with 0.2 to 10 μM copper (provided as CuSO4), zinc (as ZnCl2), silver (as silver lactate) or gold (as HAuCl4.3H2O) ions added to growth medium. No pH changes occurred with addition of metal salts to culture medium. To provide a biologically relevant source of copper, in some experiments medium was supplemented with human ceruloplasmin at doses replicating low and high normal adult serum concentrations (250 and 500 μg/ml).
Proliferation of cultured cells was quantitated using a previously reported calorimetric method based upon metabolic reduction of the soluble yellow tetrazolium dye 3-[4,5-dimethylthiazol]-2yl-2,5-diphenyl tetrazolium bromide (MTT) to its insoluble purple formazan by the action of mitochondrial succinyl dehydrogenase (See, e.g., S. J. Hirst, et al., “Quantifying proliferation of cultured human and rabbit airway smooth muscle in response to serum and platelet derived growth factor,” Am. J. Respir. Cell Mol. Biol. 7:574-581 (1992); R. Dashtaki, et al. R., supra; S. S. Brar, et al., “Requirement for reactive oxygen species in serum-induced and platelet-derived growth factor-induced growth of airway smooth muscle,” J. Biol. Chem. 274:20017-20026 (1999)). This assay empirically distinguishes between dead and living cells. For proliferation studies, cells were seeded into 24-well uncoated plastic plates (Costar) at 50,000 cells per well and cultured with respective media and mitogens. After 24-96 hours, medium was removed, cells were washed twice with 1 ml of sterile Dulbecco's modified phosphate buffered saline without Ca^2+ or Mg^2+ (DPBS), the medium was replaced with 1 ml/well fresh medium containing 100 μg/ml MTT, and plates were incubated an additional hour. MTT-containing medium was removed, 0.5 ml dimethylsulfoxide (DMSO) was added to each well, and the absorbance of the solubilized purple formazan dye was measured at 540 nm. A total of 4-6 wells were studied at each treatment condition. Preliminary studies were performed with 50-200 μg/ml MTT incubated for 15 minutes to 3 hours to determine the optimum concentration and incubation time at which the rate of conversion was linear and proportional to the number of cells present. […]
For orientation: Tetrazolium assays rely on reduction of a dye to a coloured formazan, in cell work by metabolically active cells.

Assay [1] relates to Prostate carcinoma CRL 1435 (PC-3). As to the kind of experiment: MTT proliferation assay, prostate carcinoma PC-3. It counts as cell-based. Conditions: Homo sapiens, treatment initially, after 48 hours, 10% FBS, read-out: Mean Percent Inhibition of Growth. As for the experimental part:
as §1
The effect of disulfiram (0.15 to 5.0 μM), diethyldithiocarbamate (DDC, 1.0 μM) or PDTC (0.625 to 5.0 μM) on proliferation of malignant cell lines was studied in cultures stimulated with 10% FBS. Cell numbers were quantitated 24-72 hours later. In some experiments disulfiram or PDTC were added immediately after cells were plated. In other experiments, cells were plated and allowed to grow for 24-72 hours before fresh media with disulfiram or PDTC was added, and cell numbers were assayed 24-72 hours later. […]
Proliferation of cultured cells was quantitated using a previously reported calorimetric method based upon metabolic reduction of the soluble yellow tetrazolium dye 3-[4,5-dimethylthiazol]-2yl-2,5-diphenyl tetrazolium bromide (MTT) to its insoluble purple formazan by the action of mitochondrial succinyl dehydrogenase (See, e.g., S. J. Hirst, et al., “Quantifying proliferation of cultured human and rabbit airway smooth muscle in response to serum and platelet derived growth factor,” Am. J. Respir. Cell Mol. Biol. 7:574-581 (1992); R. Dashtaki, et al. R., supra; S. S. Brar, et al., “Requirement for reactive oxygen species in serum-induced and platelet-derived growth factor-induced growth of airway smooth muscle,” J. Biol. Chem. 274:20017-20026 (1999)). […] MTT-containing medium was removed, 0.5 ml dimethylsulfoxide (DMSO) was added to each well, and the absorbance of the solubilized purple formazan dye was measured at 540 nm. […]

In a further assay the test system is M1619 melanoma cells. The experiment in a line: DNA cell cycle by flow cytometry. It counts as cell-based, human. Conditions: 24 hours. As for the experimental part:
To study the effect of disulfiram on the DNA cell cycle, cells were grown to confluence in 25 cm^2 plastic flasks and treated for with 10% FBS plus DMSO vehicle, FBS and DMSO vehicle plus 250 μg/ml ceruloplasmin as a source of copper, FBS plus 5 μM disulfiram or FBS plus 5 μM disulfiram and 250 μg/ml ceruloplasmin. After 24 hours cells were trypsinized, washed twice in cold DPBS with 1 mM EDTA and 1% BSA, fixed 30 minute in ice-cold 70% ethanol, and stained by incubation for 30 minutes at 37° C. in a 10 μg/ml solution of propidium iodide in DPBS and 1 mg/ml RNase A. DNA cell cycle measurements were made using a FACStar^PLUS Flow Cytometer (Becton-Dickenson, San Jose, Calif.).
The antiproliferative activity of dithiocarbamate disulfides depends on complexation with copper. PDTC induces apoptosis in normal thymocytes that is mediated by complexation of copper from fetal bovine serum in the medium and subsequent facilitation of copper transport into cells. […] Unsynchronized M1619 melanoma cells were grown in the presence of DMSO vehicle (A), 5 μM disulfiram (B), or 5 μM disulfiram plus 250 μg/ml ceruloplasmin (Cerulo) as a source of copper (C). Twenty-four hours later, cells were harvested and flow cytometric analysis was performed. The proportion of nuclei in each phase of the cell cycle (brackets) was determined with MODFIT DNA analysis software. Disulfiram increases the portion of cells in S phase. The combination of disulfiram and ceruloplasmin further increases the number of cells in S phase, prevents progression into the G2-M cell cycle and induces apoptosis.
A general note: Flow cytometry measures light scatter and fluorescence of single cells or particles in a stream.

Setting [2] is: treatment after 24 hours of growth.
Where [3] appears, read: treatment initially, after 48 hours, 10% FBS.
The mark [4] stands for this setting: 5 μM disulfiram plus 250 μg/ml ceruloplasmin.

Read-outs that look alike come from different tables or passages of the source.

`CCN(CC)C(=S)SSC(=S)N(CC)CC` [Disulfiram, tetraethylthiuram disulfide]: in the assay on Melanoma M1585 (M1585 melanoma cells, read-out: 50% inhibitor concentration (IC50)), the IC50 came out at 0.3 µM. In the assay on Melanoma M1585 (setting [2]), the inhibition at 0.625 µM was found to be 74 ± 4%, the inhibition at 1.25 µM came out at 49 ± 7%, the inhibition at 2.5 µM was 41 ± 2% and the inhibition at 5 µM is 37 ± 6%. In the assay with Melanoma M1585 (setting [3]), the inhibition at 0.625 µM turned out to be 100%, the inhibition at 1.25 µM was determined as 100%, the inhibition at 2.5 µM was found to be 100% and the inhibition at 5 µM turned out to be 100%. Moreover, in assay [1] (disulfiram 0.625 μM), the inhibition at 0.625 µM came to 6 ± 6%. The inhibition at 1.25 µM in assay [1] (disulfiram 1.25 μM) is 29 ± 5%. In assay [1] (disulfiram 2.5 μM), the inhibition at 2.5 µM is 48 ± 2%. Further, the inhibition at 5 µM in assay [1] (disulfiram 5.0 μM) turned out to be 86 ± 2%. Besides, in the assay on M1619 melanoma cells (setting [4]), the apoptotic cells was determined as 6%, the “cells in G2-M” value is listed as “none” and the “cells in S phase” value is recorded as “Over two-thirds”. The cell cycle distribution result in the assay with M1619 melanoma cells (5 μM disulfiram) was “increases the portion in S phase”.
